Activity calls are given as the source filed them. No cut-off for these calls is given here.
How the values were obtained:
MDA-MB-231 [1] = test: Induction of apoptosis in human MDA-MB-231 cells assessed as accumulation in late apoptotic cells at 5 uM incubated for 72 hrs by Annexin V-FITC/PI staining based flow cytometry analysis; format: functional, cell-based
MDA-MB-231 [2] = test: Induction of apoptosis in human MDA-MB-231 cells assessed as accumulation in early apoptotic cells at 5 uM incubated for 72 hrs by Annexin V-FITC/PI staining based flow cytometry analysis; format: functional, cell-based
MCF7 [3] = test: Induction of apoptosis in human MCF7 cells assessed as accumulation in late apoptotic cells at 5 uM incubated for 72 hrs by Annexin V-FITC/PI staining based flow cytometry analysis; format: functional, cell-based
MCF7 [4] = test: Induction of apoptosis in human MCF7 cells assessed as accumulation in early apoptotic cells at 5 uM incubated for 72 hrs by Annexin V-FITC/PI staining based flow cytometry analysis; format: functional, cell-based
BT-474 [5] = test: Induction of apoptosis in human BT474 cells assessed as increase in late apoptotic cells at 0.5 to 5 uM incubated for 72 hrs by Annexin V-FITC/PI staining based flow cytometry analysis relative to control; format: functional; settings: dose 0.5-5 µM
BT-474 [6] = test: Induction of apoptosis in human BT474 cells assessed as increase in early apoptotic cells at 0.5 to 5 uM incubated for 72 hrs by Annexin V-FITC/PI staining based flow cytometry analysis relative to control; format: functional; settings: dose 0.5-5 µM
BT-474 [7] = test: Induction of apoptosis in human BT474 cells assessed as increase in early apoptotic cells at 0.2 uM incubated for 72 hrs by Annexin V-FITC/PI staining based flow cytometry analysis relative to control; format: functional
BT-474 [8] = test: Induction of apoptosis in human BT474 cells assessed as increase in early apoptotic cells incubated for 72 hrs by Annexin V-FITC/PI staining based flow cytometry analysis; format: functional, cell-based; settings: dose 0.1-5 µM
MDA-MB-231 [9] = test: Antiproliferative activity against human MDA-MB-231 cells assessed as reduction in cell viability incubated for 72 hrs by WST8 assay; format: functional, cell-based; settings: MDA-MB-231, 72 h
MCF7 [10] = test: Antiproliferative activity against human MCF7 cells assessed as reduction in cell viability incubated for 72 hrs by WST8 assay; format: functional, cell-based; settings: MCF7, 72 h
[11] = target: T1, Receptor tyrosine-protein kinase erbB-2 (Homo sapiens, UniProt P04626); test: Inhibition of wild-type HER2 (unknown origin) at 0.5 nM in presence of substrate incubated for 30 mins by ADP-Glo assay relative to control
T1 sequence (P04626 whole entry): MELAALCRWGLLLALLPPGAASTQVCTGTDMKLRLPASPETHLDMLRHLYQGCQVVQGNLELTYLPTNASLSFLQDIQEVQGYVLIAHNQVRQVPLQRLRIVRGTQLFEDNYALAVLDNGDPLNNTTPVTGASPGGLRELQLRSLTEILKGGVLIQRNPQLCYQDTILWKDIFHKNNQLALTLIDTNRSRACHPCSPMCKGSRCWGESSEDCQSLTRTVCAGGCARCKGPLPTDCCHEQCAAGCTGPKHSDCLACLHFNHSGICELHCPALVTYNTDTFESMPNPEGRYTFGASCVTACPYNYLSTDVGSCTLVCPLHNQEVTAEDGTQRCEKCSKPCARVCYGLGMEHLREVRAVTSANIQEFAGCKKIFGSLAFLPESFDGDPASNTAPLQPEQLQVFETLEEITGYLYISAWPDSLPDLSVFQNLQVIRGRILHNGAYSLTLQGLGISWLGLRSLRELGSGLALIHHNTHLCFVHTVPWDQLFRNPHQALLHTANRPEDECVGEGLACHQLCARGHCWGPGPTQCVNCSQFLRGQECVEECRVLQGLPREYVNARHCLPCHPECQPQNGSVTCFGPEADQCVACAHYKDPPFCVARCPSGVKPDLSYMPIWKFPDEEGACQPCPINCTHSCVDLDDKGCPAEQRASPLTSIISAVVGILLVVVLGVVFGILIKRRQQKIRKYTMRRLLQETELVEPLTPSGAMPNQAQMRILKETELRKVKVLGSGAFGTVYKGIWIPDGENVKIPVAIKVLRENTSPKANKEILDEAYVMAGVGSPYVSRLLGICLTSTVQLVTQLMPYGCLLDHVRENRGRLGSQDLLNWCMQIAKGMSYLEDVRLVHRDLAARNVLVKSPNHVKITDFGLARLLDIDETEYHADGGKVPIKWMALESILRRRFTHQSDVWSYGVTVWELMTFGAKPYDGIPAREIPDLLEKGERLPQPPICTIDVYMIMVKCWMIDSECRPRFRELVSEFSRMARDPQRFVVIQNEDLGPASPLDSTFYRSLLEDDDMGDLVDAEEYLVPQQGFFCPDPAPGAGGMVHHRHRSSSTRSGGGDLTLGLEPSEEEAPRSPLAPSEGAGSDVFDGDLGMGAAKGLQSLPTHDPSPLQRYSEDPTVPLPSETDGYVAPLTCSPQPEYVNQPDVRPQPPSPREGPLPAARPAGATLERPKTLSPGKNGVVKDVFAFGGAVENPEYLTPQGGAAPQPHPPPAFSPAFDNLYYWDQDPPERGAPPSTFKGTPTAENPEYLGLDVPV

BT-474 [12] = test: Antiproliferative activity against human BT474 cells assessed as reduction in cell viability incubated for 72 hrs by WST8 assay; format: functional, cell-based; settings: BT-474, 72 h
AU565 [13] = test: Antiproliferative activity against human AU565 cells assessed as reduction in cell viability incubated for 72 hrs by WST8 assay; format: functional, cell-based; settings: AU565, 72 h
[14] = target: T1, Receptor tyrosine-protein kinase erbB-2; test: Inhibition of HER2 (unknown origin) in presence of substrate incubated for 30 mins by ADP-Glo assay
MCF7 [15] = test: Potency index, ratio of lapatinib IC50 to test compound IC50 for antiproliferative activity against human MCF7 cells; format: functional
[16] = Selectivity ratio of IC50 for antiproliferative activity against human AU565 cells to IC50 for antiproliferative activity against human BT474 cells; format: functional
AU565 [17] = test: Down regulation of HER2 expression in human AU565 cells at 0.5 IC50 incubated for 72 hrs by Western blot analysis; format: functional, cell-based
T47D = test: Antiproliferative activity against human T47D cells assessed as cell growth inhibition after 48 hrs by SRB assay; format: functional; settings: pooled result: one value given for 5 cell lines, strains, targets or settings
[18] = Antiproliferative activity against human BC assessed as lethality at 10 uM after 48 hrs by SRB assay relative to control; format: functional
[19] = Antiproliferative activity against human BC assessed as cell growth inhibition at 10 uM after 48 hrs by SRB assay relative to control; format: functional; settings: read-out: GI
[20] = Antiproliferative activity against human MDA-MB-231 cells assessed as lethality at 10 uM after 48 hrs by SRB assay relative to control; format: functional, MDA-MB-23
MCF7 [21] = test: Antiproliferative activity against human MCF7 cells assessed as lethality at 10 uM after 48 hrs by SRB assay relative to control; format: functional
MDA-MB-468 [22] = test: Antiproliferative activity against human MDA-MB-468 cells assessed as cell growth inhibition after 48 hrs by SRB assay; format: functional
MDA-MB-468 [23] = test: Antiproliferative activity against human MDA-MB-468 cells assessed as lethality at 10 uM after 48 hrs by SRB assay relative to control; format: functional
MDA-MB-468 [24] = test: Antiproliferative activity against human MDA-MB-468 cells assessed as cell growth inhibition at 10 uM after 48 hrs by SRB assay relative to control; format: functional; settings: read-out: GI
[25] = system: Panel NCI-60 (60 carcinoma cell lines); test: Antiproliferative activity against human NCI60 cells assessed as lethality at 10 uM after 48 hrs by SRB assay relative to control; format: functional
[26] = system: Panel NCI-60 (60 carcinoma cell lines); test: Antiproliferative activity against human NCI60 cells assessed as mean cell growth at 10 uM after 48 hrs by SRB assay relative to control; format: functional
BT-474 [27] = test: Antitumor activity against human BT474 cells xenografted in athymic nude mouse assessed as reduction in metastasis of cells at 50 mg/kg, po administered via oral gavage for 5 times per week for 55 days measured post-last dose; format: functional, organism-based; settings: time 55.0 day
BT-474 [28] = test: Antitumor activity against human BT474 cells xenografted in athymic nude mouse assessed as suppression of tumor growth by measuring decrease in number of Ki67 positive cells at 50 mg/kg, po administered via oral gavage for 5 times per week for 55 days measured post-last dose by Ki67-staining based immunohistochemistry; format: functional, organism-based; settings: time 55.0 day
BT-474 [29] = test: Antitumor activity against human BT474 cells xenografted in athymic nude mouse assessed as inflammation in tumors at 50 mg/kg, po administered via oral gavage for 5 times per week for 55 days measured post-last dose by H and E staining based immunohistochemical analysis; format: functional, organism-based; settings: time 55.0 day
BT-474 [30] = test: Antitumor activity against human BT474 cells xenografted in athymic nude mouse assessed as appearance of tumor fibrosis at 50 mg/kg, po administered via oral gavage for 5 times in a week for 55 days measured post-last dose by H and E staining based immunohistochemical analysis; format: functional, organism-based; settings: time 55.0 day
BT-474 [31] = test: Antitumor activity against human BT474 cells xenografted in athymic nude mouse assessed as tumor necrosis at 50 mg/kg, po administered via oral gavage for 5 times in a week for 55 days measured post-last dose by H and E staining based immunohistochemical analysis; format: functional, organism-based; settings: time 55.0 day
BT-474 [32] = test: Antitumor activity against human BT474 cells xenografted in athymic nude mouse assessed as tumor weight at 50 mg/kg, po administered via oral gavage for 5 times in a week for 55 days measured post last dose (reference value: 2.046 g); format: functional; settings: time 55 day
BT-474 [33] = test: Antitumor activity against human BT474 cells xenografted in athymic nude mouse assessed as tumor growth inhibition at 50 mg/kg, po administered via oral gavage for 5 times in a week for 55 days measured post last dose; format: functional, organism-based; settings: time 55.0 day
AU565 [34] = test: Down regulation of HER2 expression in human AU565 cells at 0.1 IC50 incubated for 24 hrs by western blot analysis; format: functional, cell-based
[35] = target: T1, Receptor tyrosine-protein kinase erbB-2; test: Inhibition of wild-type HER2 (unknown origin) at 100 nM in presence of substrate incubated for 30 mins by ADP-Glo assay relative to control
in vitro [36] = settings: CD-1, mouse, liver microsomes
Description: Metabolic stability in CD-1 mouse liver microsomes assessed as parent compound remaining at 100 uM measured after 60 mins by LC-MS/MS analysis

in vitro [37] = settings: CD-1, mouse, liver microsomes; remark: listed apart in the source
Description: Metabolic stability in CD-1 mouse liver microsomes assessed as parent compound remaining at 100 uM measured after 60 mins in presence of NADPH by LC-MS/MS analysis

in vitro [38] = settings: CD-1, mouse, liver microsomes; remark: listed apart in the source
in vitro [39] = settings: CD-1, mouse, microsomes
in vitro [40] = settings: CD-1, mouse, liver microsomes; remark: listed apart in the source

| SMILES | Activity (MDA-MB-231 [1]) | Activity (MDA-MB-231 [2]) | Activity (MCF7 [3]) | Activity (MCF7 [4]) | fold change (FC) (BT-474 [5]) | fold change (FC) (BT-474 [6]) | Activity (BT-474 [8]) | IC50 (MDA-MB-231 [9]) | IC50 (MCF7 [10]) | inhibition [11] | IC50 (BT-474 [12]) | IC50 (AU565 [13]) | IC50 [14] | Ratio IC50 (MCF7 [15]) | GI50 (T47D) | Activity [18] | inhibition of growth at 10 µM [19] | Activity [20] | Activity (MCF7 [21]) | GI50 (MDA-MB-468 [22]) | other results |
| --- | --- | --- | --- | --- | --- | --- | --- | --- | --- | --- | --- | --- | --- | --- | --- | --- | --- | --- | --- | --- | --- |
| CN1CCN(CC(=O)Nc2ccc3ncnc(Nc4ccc(OCc5cccc(F)c5)c(Cl)c4)c3c2)CC1 | inactive | inactive | inactive | inactive | 2 | 10 | Dose-dependent effect | 1360 nM | 1780 nM | 3% | 133 nM | 134 nM | 6.1 nM | <=20 |  |  |  |  |  |  | fold change (FC) (BT-474 [7]): 7 |
| CN(C)CC(=O)Nc1ccc2ncnc(Nc3ccc(Oc4cccc(F)c4)c(Cl)c3)c2c1 |  |  |  |  |  | <=6 | Dose-dependent effect | 6560 nM | 321 nM |  | 107 nM | 663 nM |  | <=20 |  |  |  |  |  |  | Activity (BT-474 [5]): inactive; Ratio IC50 [16]: 6 |
| Cc1cccc(Oc2ccc(Nc3ncnc4ccc(NC(=O)CN5CCN(C)CC5)cc34)cc2Cl)c1 | inactive | inactive | inactive | inactive | <=3 | <=6 | Dose-dependent effect | 4500 nM | 2650 nM | 3% | 81 nM | 135 nM | 5.4 nM |  | 1210 nM | <=78.7% | ≤ 78.7% | 18% | 18% | 400 nM | Activity (AU565 [17]): inactive; Activity (MDA-MB-468 [23]): 18%; inhibition of growth at 10 µM (MDA-MB-468 [24]): 18.8%; Activity [25]: 1.3%; Activity [26]: 11.85% |
| CN1CCN(CCCOc2ccc3ncnc(Nc4ccc(OCc5cccc(F)c5)c(Cl)c4)c3c2)CC1 | inactive | inactive | inactive | inactive | <=3 | <=6 | Dose-dependent effect | 737 nM | 1930 nM | 3% | 83 nM | 99 nM | 8.3 nM | <=20 | 1370 nM | <=78.7% | ≤ 78.7% | 11.7% | 11.7% | 400 nM | Activity (BT-474 [27]): Active; Activity (BT-474 [28]): Active; Activity (BT-474 [29]): Active; Activity (BT-474 [30]): Active; Activity (BT-474 [31]): Active; Activity (BT-474 [32]): 1.223 g; TGI (BT-474 [33]): Active; Activity (AU565 [34]): Active; Activity (MDA-MB-468 [23]): 11.7%; inhibition of growth at 10 µM (MDA-MB-468 [24]): 18.8%; Activity [25]: 1.3%; Activity [26]: 11.85%; inhibition [35]: 91%; remaining at 1 h, 100 µM (in vitro [36]): 93.5%; remaining at 1 h, 100 µM (in vitro [37]): 46.4%; CLint scaled at 1 h, 100 µM (in vitro [38]): 95.7 mL/min/kg; microsomal CLint at 1 h, 100 µM (in vitro [39]): 24.2 µL/min/mg; half-life at 1 h, 100 µM (in vitro [40]): 57.4 min |

Reference: ChEMBL document CHEMBL4715878 (J Med Chem, 2020)
